The subject of data set [1] is Saccharomyces cerevisiae. As to the kind of experiment: Antifungal activity against Saccharomyces cerevisiae ATCC 9763 by twofold serial broth dilution assay. Type of data set: functional. (In general: Broth dilution looks for growth in wells or tubes with falling amounts of substance.)
Data set [2] has as its system Candida albicans. In words: Antifungal activity against Candida albicans NIH B311 infected in ICR mouse assessed as reduction in number of recovered colony forming units at 0.5 mg/kg, ip administered after 7 hrs inoculation measured after 16 hrs. The data set is classed as functional. On the set-up: scale not given: the % may be the effect or the level left. The settings on record: route intraperitoneal.

Data set [3] can be described thus: Toxicity in iv dosed ICR mouse assessed as morbidity and lethality after 14 days. The data set is classed as organism-based. The following applies: in vivo.
In data set [4] the test system is Cryptococcus neoformans. In words: Antifungal activity against Cryptococcus neoformans ATCC 32264 by twofold serial broth dilution assay. The data set is classed as functional.
Data set [5] deals with Candida albicans. In words: Antifungal activity against Candida albicans WH-D by twofold serial broth dilution assay. The data set is classed as functional.
Data set [6] deals with Aspergillus flavus. In words: Antifungal activity against Aspergillus flavus ATCC 9170 by twofold serial broth dilution assay. Type of data set: functional.
Data set [7] concerns Candida albicans. In words: Antifungal activity against Candida albicans NIH B311 after 24 hrs by […]. The following applies: NIH B311, 24 h. Type of data set: functional. (Agar diffusion results depend on both activity and mobility in agar.)
Data set [8] deals with Trichophyton mentagrophytes. As to the kind of experiment: Antifungal activity against Trichophyton mentagrophytes ATCC 9972 by twofold serial broth dilution assay. Type of data set: functional.
Data set [9] concerns Candida albicans. In words: Antifungal activity against Candida albicans ATCC 10231 by twofold serial broth dilution assay. The data set is classed as functional.
The test system of data set [10] is Aspergillus fumigatus. As to the kind of experiment: Antifungal activity against Aspergillus fumigatus ATCC 26934 by twofold serial broth dilution assay. Type of data set: functional.
A short description of data set [11]: Toxicity in ip dosed ICR mouse assessed as morbidity and lethality after 14 days. The data set is classed as organism-based. The settings on record: in vivo.

In brackets after ≈: the same amount, converted by molar mass.

`C[C@@H]1[C@H](O)[C@@H](C)/C=C/C=C/C=C/C=C/C=C/C=C/C=C/[C@H](O[C@@H]2O[C@H](C)[C@@H](O)[C@H](N)[C@@H]2O)C[C@@H]2O[C@](O)(C[C@@H](O)C[C@@H](O)[C@H](O)CC[C@@H](O)C[C@@H](O)CC(=O)O[C@H]1C)C[C@H](O)[C@H]2C(=O)O` [AMPHOTERICIN B]: the MIC (as a rule, the lowest concentration that inhibits growth of the organism) in [1] was found to be 25 µg/mL (≈ 27.1 µM); in data set [4] it was 1.56 µg/mL (≈ 1.69 µM); in data set [5], 0.78 µg/mL (≈ 0.844 µM); in data set [6], 50 µg/mL (≈ 54.1 µM); in data set [7], 0.39 µg/mL (≈ 0.422 µM); in [8], 50 µg/mL (≈ 54.1 µM). Besides, the MIC in data set [9] came to 1.56 µg/mL (≈ 1.69 µM); in data set [10], 100 µg/mL (≈ 108 µM). In data set [2], the Activity was found to be 97.5%. Moreover, in data set [3], the LD50 (as a rule, the dose at which mortality reaches 50%) at 336 h was 1 mg/kg.
With `C[C@@H]1CC[C@@]2(OC1)O[C@H]1C[C@H]3[C@@H]4CC=C5C[C@@H](O[C@@H]6O[C@H](CO)[C@@H](O[C@@H]7O[C@@H](C)[C@H](O[C@@H]8O[C@@H](C)[C@H](O)[C@@H](O)[C@H]8O)[C@@H](O)[C@H]7O)[C@H](O)[C@H]6O[C@@H]6O[C@@H](C)[C@H](O)[C@@H](O)[C@H]6O)CC[C@]5(C)[C@H]4CC[C@]3(C)[C@H]1[C@@H]2C` [PENNOGENIN RAHAMNOSYL CHACOTRIOSIDE], the MIC is 12.5 µg/mL (≈ 12.3 µM) in data set [1]; 12.5 µg/mL (≈ 12.3 µM) in data set [4]; 12.5 µg/mL (≈ 12.3 µM) in [5]; 100 µg/mL (≈ 98.5 µM) in data set [6]; 6.25 µg/mL (≈ 6.16 µM) in [7]; 3.12 µg/mL (≈ 3.07 µM) in data set [8]. Besides, the values for the MIC in [9] and in data set [10] were 12.5 µg/mL (≈ 12.3 µM) and 100 µg/mL (≈ 98.5 µM), respectively. For the same molecule, the LD50 at 336 h in [3] was found to be 5 mg/kg; in data set [11] it was 28 mg/kg.
As for `C[C@@H]1CC[C@@]2(OC1)O[C@H]1C[C@H]3[C@@H]4CC=C5C[C@@H](O[C@@H]6O[C@H](CO)[C@@H](O[C@@H]7O[C@@H](C)[C@H](O)[C@@H](O)[C@H]7O)[C@H](O)[C@H]6O[C@@H]6O[C@@H](C)[C@H](O)[C@@H](O)[C@H]6O)CC[C@]5(C)[C@H]4CC[C@]3(C)[C@H]1[C@@H]2C` [DIOSCIN], the MIC is 25 µg/mL (≈ 28.8 µM) in data set [1]; 25 µg/mL (≈ 28.8 µM) in [4]; 6.25 µg/mL (≈ 7.19 µM) in data set [5]; 100 µg/mL (≈ 115 µM) in data set [6]; 1.56 µg/mL (≈ 1.8 µM) in [7]; 6.25 µg/mL (≈ 7.19 µM) in data set [8]. The MIC in [9] was found to be 3.12 µg/mL (≈ 3.59 µM); in [10], 50 µg/mL (≈ 57.5 µM). In addition, the LD50 at 336 h was determined as 10 mg/kg in data set [3] and 38 mg/kg in data set [11].

Values taken from ChEMBL document CHEMBL1150744, “Antifungal activity of Trillium grandiflorum constituents” (J Nat Prod, 1988).
